Data as given in the supplement of paper PMC11061612.

How the values were obtained:
[1] = compound: CC(C)n1c(=O)n(C)c2cnc3cc(F)c(-c4ccc(OCCCN5CCCCC5)nc4)cc3c21 [AZD1390]; settings: max 0.3 µM
Outline: (§1)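 Following 24 hours at 37°C and 5% CO2, cancer cell lines in 1536-well plates with 7.5 μl DMEM/F12 or RPMI and 10% FBS were dosed for 72 hours, final DMSO typically being 0.2%. CellTiter-Glo 2.0 luminescence, scaled between blank-well and DMSO-well means, gave the viability readout. Dose responses were fitted to a two-parameter logistic curve with a non-linear mixed effects model, and the single-agent IC50 was derived from this fit.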

[2] = compound: CC(=O)c1c(C)c2cnc(Nc3ccc(N4CCNCC4)cn3)nc2n(C2CCCC2)c1=O [Palbociclib]; settings: max 10 µM
Outline: as §1

[3] = compound: CC1(C)CCC(CN2CCN(c3ccc(C(=O)NS(=O)(=O)c4ccc(NCC5CCOCC5)c([N+](=O)[O-])c4)c(Oc4cnc5[nH]ccc5c4)c3)CC2)=C(c2ccc(Cl)cc2)C1 [Venetoclax]; settings: max 1 µM
Outline: as §1

[4] = compound: COc1cccc2c1C(=O)c1c(O)c3c(c(O)c1C2=O)C[C@@](O)(C(=O)CO)C[C@@H]3O[C@H]1C[C@H](N)[C@H](O)[C@H](C)O1 [Doxorubicin]; settings: max 1 µM
Outline: as §1

[5] = compound: Cc1c2c(nn1C)CSCc1cc(n(C)n1)CSc1cc(c3ccccc3c1)OCCCc1c(C(=O)O)n(C)c3c-2c(Cl)ccc13 [AZD5991]; settings: max 1 µM
Outline: as §1

[6] = compound: COc1cc(Nc2ncc3c(n2)-c2ccc(Cl)cc2C(c2c(F)cccc2OC)=NC3)ccc1C(=O)O [Alisertib]; settings: max 10 µM
Outline: as §1

[7] = compound: C[C@@H](Oc1cc(-c2cnn(C3CCNCC3)c2)cnc1N)c1c(Cl)ccc(F)c1Cl [Crizotinib]; settings: max 10 µM
Outline: as §1

[8] = compound: CN(C)CCCOc1ccc(-c2ccc3ncc4c(c3c2)n(C2CCOCC2)c(=O)n4C)cn1 [AZD0156]; settings: max 3 µM
Outline: as §1

[9] = compound: Cn1cnc2c(F)c(Nc3ccc(Br)cc3Cl)c(C(=O)NOCCO)cc21 [Selumetinib]; settings: max 10 µM
Outline: as §1

[10] = compound: COc1cccc(OCCCN)c1-c1cc(Nc2cnc(C#N)cn2)n[nH]1 [Prexasertib]; settings: max 1 µM
Outline: as §1

[11] = compound: CN(CC[C@H](CSC1=CC=CC=C1)NC2=C(C=C(C=C2)S(=O)(=O)NC(=O)C3=CC=C(C=C3)N4CCC(CC4)[C@H](C5=CC=CC=C5C6=CC=C(C=C6)Cl)O)S(=O)(=O)C(F)(F)F)CCO [AZD4320]; settings: max 1 µM
Outline: as §1

[12] = compound: C[C@@H](Nc1cc(F)cc(F)c1)c1cc(C(=O)N(C)C)cc2c(=O)cc(N3CCOCC3)oc12 [AZD8186]; settings: max 3 µM
Outline: as §1

[13] = compound: C=CCn1c(=O)c2cnc(Nc3ccc(N4CCN(C)CC4)cc3)nc2n1-c1cccc(C(C)(C)O)n1 [AZD1775]; settings: max 3 µM
Outline: as §1

[14] = compound: Cc1cc2ncnn2cc1Nc1ncc2c(n1)n(C1CCOCC1)c(=O)n2C [AZD7648]; settings: max 10 µM
Outline: as §1

[15] = compound: CC1=C(C(=CC=C1)Cl)NC(=O)C2=CN=C(S2)NC3=CC(=NC(=N3)C)N4CCN(CC4)CCO [Dasatinib]; settings: max 2 µM
Outline: as §1

[16] = compound: O=C(c1cc(Cc2n[nH]c(=O)c3ccccc23)ccc1F)N1CCN(C(=O)C2CC2)CC1 [Olaparib]; settings: max 10 µM
Outline: as §1

[17] = compound: Cc1nc(-c2cn3c(n2)-c2ccc(-c4cnn(C(C)(C)C(N)=O)c4)cc2OCC3)n(C(C)C)n1 [Taselisib]; settings: max 10 µM
Outline: as §1

[18] = compound: COc1cc2ncnc(Nc3ccc(F)c(Cl)c3)c2cc1OCCCN1CCOCC1 [Gefitinib]; settings: max 10 µM
Outline: as §1

[19] = compound: CCc1c2c(nc3ccc(O)cc13)-c1cc3c(c(=O)n1C2)COC(=O)[C@]3(O)CC [SN-38]; settings: max 0.3 µM
Outline: as §1

[20] = compound: C[C@@H](c1ccc2nccn2c1)n1nnc2ncc(-c3cnn(C)c3)nc21 [Savolitinib]; settings: max 1 µM
Outline: as §1

[21] = compound: CC(=O)Nc1cccc(-n2c(=O)n(C3CC3)c(=O)c3c(Nc4ccc(I)cc4F)n(C)c(=O)c(C)c32)c1 [Trametinib]; settings: max 1 µM
Outline: as §1

[22] = compound: C[C@@H]1COCCN1C2=NC(=NC(=C2)C3(CC3)[S@](=N)(=O)C)C4=C5C=CNC5=NC=C4 [AZD6738]; settings: max 10 µM
Outline: as §1

[23] = compound: COc1nnc2ccc(N3CCC(c4ccc(OCCN5CCN(C)C(=O)[C@H]5C)cc4)CC3)nn12 [AZD5153]; settings: max 1 µM
Outline: as §1

[24] = compound: C1CN(CCC1(C(=O)N[C@@H](CCO)C2=CC=C(C=C2)Cl)N)C3=NC=NC4=C3C=CN4 [Capivasertib]; settings: max 10 µM
Outline: as §1

[25] = compound: CC1=CN2[C@@H](C1)C=NC3=CC(=C(C=C3C2=O)OC)OCCCCCOC4=C(C=C5C(=C4)N=C[C@@H]6CC(=CN6C5=O)C)OC [SG3199]; settings: max 0.001 µM
Outline: as §1

[26] = compound: CCN(CCO)CCCOc1ccc2c(Nc3cc(CC(=O)Nc4cccc(F)c4)[nH]n3)ncnc2c1 [AZD2811]; settings: max 1 µM
Outline: as §1

[27] = compound: CS(=O)(=O)CCNCc1ccc(-c2ccc3ncnc(Nc4ccc(OCc5cccc(F)c5)c(Cl)c4)c3c2)o1 [Lapatinib]; settings: max 10 µM
Outline: as §1

| Cell Line | IC50, cell viability 72 h [1] [nM] | IC50, cell viability 72 h [2] [nM] | IC50, cell viability 72 h [3] [nM] | IC50, cell viability 72 h [4] [nM] | IC50, cell viability 72 h [5] [nM] | IC50, cell viability 72 h [6] [nM] | IC50, cell viability 72 h [7] [nM] | IC50, cell viability 72 h [8] [nM] | IC50, cell viability 72 h [9] [nM] | IC50, cell viability 72 h [10] [nM] | IC50, cell viability 72 h [11] [nM] | IC50, cell viability 72 h [12] [nM] | IC50, cell viability 72 h [13] [nM] | IC50, cell viability 72 h [14] [nM] | IC50, cell viability 72 h [15] [nM] | IC50, cell viability 72 h [16] [nM] | IC50, cell viability 72 h [17] [nM] | IC50, cell viability 72 h [18] [nM] | IC50, cell viability 72 h [19] [nM] | IC50, cell viability 72 h [20] [nM] | IC50, cell viability 72 h [21] [nM] | IC50, cell viability 72 h [22] [nM] | IC50, cell viability 72 h [23] [nM] | IC50, cell viability 72 h [24] [nM] | IC50, cell viability 72 h [25] [nM] | IC50, cell viability 72 h [26] [nM] | IC50, cell viability 72 h [27] [nM] |
| --- | --- | --- | --- | --- | --- | --- | --- | --- | --- | --- | --- | --- | --- | --- | --- | --- | --- | --- | --- | --- | --- | --- | --- | --- | --- | --- | --- |
| ATN-1 (T-Lymphoblastic Leukemia) | > 300 | 5840 | > 1000 | 45.4 | 109 | 40.1 | 1410 | > 3000 | > 10000 | 2.09 | 130 | 2200 | 60.1 | > 10000 | 1700 | > 10000 | 83 | > 10000 | 5.53 | > 1000 | > 1000 | 664 | 482 | 2020 | > 1 | 18.8 | > 10000 |
| BT-474 (Breast Carcinoma) | > 300 | > 10000 | > 1000 | > 1000 | > 1000 | > 10000 | > 10000 | > 3000 | > 10000 | > 1000 | > 1000 | > 3000 | > 3000 | > 10000 | > 2000 | > 10000 | 779 | > 10000 | > 300 | > 1000 | > 1000 | > 10000 | > 1000 | > 10000 | > 1 | > 1000 | 2540 |
| C2BBe1 (Colorectal Carcinoma) | > 300 | > 10000 | > 1000 | > 1000 | > 1000 | > 10000 | > 10000 | > 3000 | > 10000 | > 1000 | > 1000 | > 3000 | 2700 | > 10000 | > 2000 | > 10000 | 2990 | > 10000 | > 300 | > 1000 | 818 | > 10000 | > 1000 | > 10000 | > 1 | > 1000 | > 10000 |
| DK-MG (Glioblastoma) | > 300 | > 10000 | > 1000 | > 1000 | > 1000 | > 10000 | 4990 | > 3000 | > 10000 | > 1000 | > 1000 | 2850 | 2150 | > 10000 | > 2000 | > 10000 | > 10000 | > 10000 | > 300 | > 1000 | 375 | > 10000 | 803 | > 10000 | > 1 | > 1000 | > 10000 |
| Daudi (Burkitt's Lymphoma) | > 300 | > 10000 | > 1000 | 173 | > 1000 | 884 | 5560 | > 3000 | > 10000 | 29.2 | > 1000 | > 3000 | 1020 | > 10000 | 627 | > 10000 | 8260 | > 10000 | 8.52 | > 1000 | > 1000 | 3880 | 243 | > 10000 | > 1 | > 1000 | > 10000 |
| GRANTA-519 (B-Cell Non-Hodgkin's Lymphoma) | > 300 | > 10000 | > 1000 | 869 | > 1000 | > 10000 | > 10000 | > 3000 | > 10000 | 17.4 |  | > 3000 | 550 | > 10000 | > 2000 | > 10000 | > 10000 | > 10000 | 4.06 | > 1000 | > 1000 | 1950 | > 1000 | > 10000 | > 1 | > 1000 | > 10000 |
| HT-3 (Cervical Carcinoma) | > 300 | > 10000 | > 1000 | 732 | > 1000 | > 10000 | > 10000 | > 3000 | > 10000 | > 1000 | > 1000 | > 3000 | 2340 | > 10000 | > 2000 | > 10000 | > 10000 | > 10000 | 8.56 | > 1000 | > 1000 | > 10000 | > 1000 | > 10000 | > 1 | > 1000 | > 10000 |
| HT-144 (Melanoma) | > 300 | > 10000 | > 1000 | > 1000 | 221 | > 10000 | 4710 | > 3000 | 632 | 139 | > 1000 | > 3000 | 250 | > 10000 | > 2000 | > 10000 | 5010 | > 10000 | 68.1 | > 1000 | 17.9 | 3480 | 981 | 5450 | > 1 | > 1000 | 8830 |
